The source of these data is ChEMBL document CHEMBL5331145, “Discovery of a Novel Bifunctional Steroid Analog, YXG-158, as an Androgen Receptor Degrader and CYP17A1 Inhibitor for the Treatment of Enzalutamide-Resistant Prostate Cancer” (J Med Chem, 2023).

Structures are written as SMILES.

The test system of one test is LNCaP. Description: Antiproliferative activity against human LNCaP cells incubated for 6 days by CellTiter-Glo assay. It counts as functional, cell-based. Background: In ATP-based viability assays light output follows the ATP content of the culture.
The target of test [1] is Voltage-gated inwardly rectifying potassium channel KCNH2 (Homo sapiens, UniProt Q12809). Description: Inhibition of human ERG by patch clamp assay. The class given is toxicity.
Voltage-gated inwardly rectifying potassium channel KCNH2, sequence (Q12809 whole entry): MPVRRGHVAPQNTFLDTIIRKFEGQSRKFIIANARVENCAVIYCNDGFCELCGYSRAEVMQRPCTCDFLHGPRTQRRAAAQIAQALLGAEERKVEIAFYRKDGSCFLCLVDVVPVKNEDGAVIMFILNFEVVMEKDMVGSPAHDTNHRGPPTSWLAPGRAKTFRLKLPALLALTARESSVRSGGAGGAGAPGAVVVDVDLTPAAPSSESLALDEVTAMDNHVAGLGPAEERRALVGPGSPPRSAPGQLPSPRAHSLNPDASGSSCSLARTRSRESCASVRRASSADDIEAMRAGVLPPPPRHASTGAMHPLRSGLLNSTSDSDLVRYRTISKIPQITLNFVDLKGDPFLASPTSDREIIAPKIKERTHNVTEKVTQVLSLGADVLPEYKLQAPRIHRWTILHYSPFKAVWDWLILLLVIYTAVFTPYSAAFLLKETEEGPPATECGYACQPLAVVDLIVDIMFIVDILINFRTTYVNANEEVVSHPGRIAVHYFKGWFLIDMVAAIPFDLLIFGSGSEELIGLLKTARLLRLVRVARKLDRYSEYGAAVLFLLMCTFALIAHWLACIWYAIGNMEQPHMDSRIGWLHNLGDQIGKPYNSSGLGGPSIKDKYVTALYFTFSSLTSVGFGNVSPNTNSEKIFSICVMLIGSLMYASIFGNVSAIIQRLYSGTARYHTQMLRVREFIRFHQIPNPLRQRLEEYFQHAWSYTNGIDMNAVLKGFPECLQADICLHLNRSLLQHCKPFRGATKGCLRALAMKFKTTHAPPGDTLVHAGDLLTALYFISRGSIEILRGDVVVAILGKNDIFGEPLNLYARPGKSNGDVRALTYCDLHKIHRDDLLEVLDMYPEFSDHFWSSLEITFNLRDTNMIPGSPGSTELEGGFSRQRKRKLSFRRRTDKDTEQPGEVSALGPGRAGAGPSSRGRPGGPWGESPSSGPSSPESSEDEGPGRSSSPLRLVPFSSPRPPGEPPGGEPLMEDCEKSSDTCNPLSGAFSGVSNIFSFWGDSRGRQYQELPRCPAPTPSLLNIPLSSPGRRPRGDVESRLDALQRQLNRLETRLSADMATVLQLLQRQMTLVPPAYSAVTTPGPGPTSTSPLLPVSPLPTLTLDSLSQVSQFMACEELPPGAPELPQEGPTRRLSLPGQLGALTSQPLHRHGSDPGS
Test [2] concerns the target T1, Androgen receptor (Homo sapiens) (UniProt P10275).
T1 sequence (whole entry): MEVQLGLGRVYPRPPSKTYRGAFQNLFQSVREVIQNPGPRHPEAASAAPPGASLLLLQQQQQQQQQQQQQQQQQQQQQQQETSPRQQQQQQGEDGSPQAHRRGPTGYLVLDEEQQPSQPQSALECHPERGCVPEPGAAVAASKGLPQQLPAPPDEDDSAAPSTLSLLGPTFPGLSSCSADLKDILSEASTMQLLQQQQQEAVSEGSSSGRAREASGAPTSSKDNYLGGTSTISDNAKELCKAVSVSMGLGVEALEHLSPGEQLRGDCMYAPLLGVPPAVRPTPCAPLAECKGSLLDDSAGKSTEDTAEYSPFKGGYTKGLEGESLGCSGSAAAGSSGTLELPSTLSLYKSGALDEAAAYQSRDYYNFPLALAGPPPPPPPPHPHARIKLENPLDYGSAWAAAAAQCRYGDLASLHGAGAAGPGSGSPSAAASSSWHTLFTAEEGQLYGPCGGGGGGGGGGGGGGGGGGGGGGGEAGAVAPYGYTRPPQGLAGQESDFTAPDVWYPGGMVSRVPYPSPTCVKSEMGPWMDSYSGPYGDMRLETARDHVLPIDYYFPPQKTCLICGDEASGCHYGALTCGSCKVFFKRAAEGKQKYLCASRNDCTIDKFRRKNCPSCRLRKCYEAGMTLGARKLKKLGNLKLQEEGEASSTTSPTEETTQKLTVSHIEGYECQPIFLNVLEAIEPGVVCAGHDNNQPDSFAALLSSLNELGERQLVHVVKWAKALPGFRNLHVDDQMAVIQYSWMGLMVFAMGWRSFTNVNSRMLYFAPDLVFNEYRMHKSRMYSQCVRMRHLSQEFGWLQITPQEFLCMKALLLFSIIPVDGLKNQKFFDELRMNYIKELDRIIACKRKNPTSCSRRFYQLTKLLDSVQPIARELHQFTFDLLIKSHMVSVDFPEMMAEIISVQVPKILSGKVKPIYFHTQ
Briefly: Potency index, ratio of galeterone DC50 to test compound DC50 for induction of androgen receptor degradation in human LNCaP cells. The class given is cell-based.

In another test the target is T2, Androgen receptor (Homo sapiens, UniProt P10275).
T2 sequence (P10275 whole entry): T1 sequence (whole entry)
Briefly: Induction of androgen receptor degradation in human LNCaP cells incubated for 24 hrs by ELISA. It counts as cell-based. In general terms: ELISA stands for enzyme-linked immunosorbent assay.

Take `Cc1cn(C2=CCC3C4CC=C5C[C@@H](NS(=O)(=O)c6ccc(C#N)cc6)CC[C@]5(C)C4CC[C@]23C)cn1` (some centres not stated): inhibition with LNCaP was half-maximal at 3650 nM (IC50). This lies in the single-digit micromolar range.

Take `C[C@]12CC[C@H](NC(=O)c3ccnnc3)CC1=CCC1C2CC[C@]2(C)C(n3cnc(C(F)(F)F)c3)=CCC12` (some centres not stated): it took 819 nM to reach half-maximal inhibition in the test on LNCaP (IC50).

Turning to `Cc1cn(C2=CCC3C4CC=C5C[C@@H](NC(=O)n6ccnc6)CC[C@]5(C)C4CC[C@]23C)cn1` (some centres not stated), the IC50 (in general, the concentration that inhibits the measured activity by half) in the test on LNCaP was found to be 6550 nM.

As to `COc1ccc(C(=O)N[C@H]2CC[C@@]3(C)C(=CCC4C3CC[C@]3(C)C(n5cnc(C)c5)=CCC43)C2)cc1` (some centres not stated), the IC50 in the test with LNCaP was above 10000 nM.

In turn, `CC(C)(O)c1cn(C2=CCC3C4CC=C5C[C@@H](NC(=O)c6ccnnc6)CC[C@]5(C)C4CC[C@]23C)cn1` (some centres not stated) yielded an IC50 in the test on LNCaP of 4630 nM.

In turn, `COC(=O)c1cn(C2=CCC3C4CC=C5C[C@@H](NC(=O)c6ccnnc6)CC[C@]5(C)C4CC[C@]23C)cn1` (some centres not stated) returned an IC50 with LNCaP of 1960 nM.

As to `C[C@]12CC[C@H](NC(=O)c3ccnnc3)CC1=CCC1C2CC[C@]2(C)C(n3cnc(Br)c3)=CCC12` (some centres not stated), the IC50 with LNCaP was 1490 nM.

In the test with LNCaP, `Cc1cn(C2=CCC3C4CC=C5C[C@@H](NS(=O)(=O)c6ccc([N+](=O)[O-])cc6)CC[C@]5(C)C4CC[C@]23C)cn1` (some centres not stated) had an IC50 of 3440 nM. This IC50 is about 2.3-fold higher than that of the compound before.

The compound `Cc1cn(C2=CCC3C4CC=C5C[C@@H](NC(=O)c6ncccn6)CC[C@]5(C)C4CC[C@]23C)cn1` (some centres not stated) displayed a 50% inhibitory concentration (IC50) in the test on LNCaP of 2420 nM.

In the case of `Cc1cn(C2=CCC3C4CC=C5C[C@@H](NC(=O)c6ccc(S(C)(=O)=O)cc6)CC[C@]5(C)C4CC[C@]23C)cn1` (some centres not stated), the IC50 is above 40000 nM in test [1] and 527 nM in the test with LNCaP. For the same compound, the Ratio in test [2] is 2.5. In addition, the EC50 (commonly the concentration at which the effect is half-maximal) on Androgen receptor was 1370 nM.

In the case of `CC(=O)c1cn(C2=CCC3C4CC=C5C[C@@H](NC(=O)c6ccnnc6)CC[C@]5(C)C4CC[C@]23C)cn1` (some centres not stated), in the test with LNCaP, the IC50 was found to be 1380 nM.

`Cc1cn(C2=CCC3C4CC=C5C[C@@H](NS(=O)(=O)c6cccnc6)CC[C@]5(C)C4CC[C@]23C)cn1` (some centres not stated) had an IC50 in the test with LNCaP of 2100 nM. Against the preceding compound, the IC50 is about 1.5-fold higher.

In the test on LNCaP, `C[C@]12CC[C@H](NC(=O)c3ccnnc3)CC1=CCC1C2CC[C@]2(C)C(n3cnc(F)c3)=CCC12` (some centres not stated) registered an IC50 of 2350 nM.

Consider `CC(C)c1cn(C2=CCC3C4CC=C5C[C@@H](NC(=O)c6ccncc6)CC[C@]5(C)C4CC[C@]23C)cn1` (some centres not stated), for which the figures for the IC50 (in test [1]; with LNCaP) were 15000 nM and 734 nM, respectively. The Ratio in test [2] came to 2.5. Also, it took 4760 nM to reach a half-maximal effect at Androgen receptor (EC50).

For the compound `CC(C)(C)c1cn(C2=CCC3C4CC=C5C[C@@H](NC(=O)c6ccnnc6)CC[C@]5(C)C4CC[C@]23C)cn1` (some centres not stated), the midpoint of inhibition with LNCaP, the IC50, lay at 1120 nM.

Take `Cc1cn(C2=CCC3C4CC=C5C[C@@H](NC(=O)c6ccc([N+](=O)[O-])cc6)CC[C@]5(C)C4CC[C@]23C)cn1` (some centres not stated): the IC50 in test [1] is above 40000 nM; with LNCaP, 595 nM. Besides, in test [2], the Ratio was found to be 2.5. The compound further displayed an EC50 at Androgen receptor of 2600 nM.

On to `Cc1cn(C2=CCC3C4CC=C5C[C@@H](NC(=O)c6ccncn6)CC[C@]5(C)C4CC[C@]23C)cn1` (some centres not stated), for which the IC50 with LNCaP came to 1240 nM.

With `COc1cn(C2=CCC3C4CC=C5C[C@@H](NC(=O)c6ccnnc6)CC[C@]5(C)C4CC[C@]23C)cn1` (some centres not stated), the IC50 came to 856000 nM in test [1] and 475 nM in the test with LNCaP. The Ratio in test [2] was 2.5. Further, the EC50 at Androgen receptor came out at 3880 nM.

Take `C[C@]12CC[C@H](NC(=O)c3ccnnc3)CC1=CCC1C2CC[C@]2(C)C(n3cnc(Cl)c3)=CCC12` (some centres not stated): the results for the IC50 (in test [1]; in the test on LNCaP) were 24600 nM and 608 nM, respectively.

For `CC(C)c1cn(C2=CCC3C4CC=C5C[C@@H](NC(=O)c6ccnnc6)CC[C@]5(C)C4CC[C@]23C)cn1` (some centres not stated), the IC50 was above 40000 nM in test [1] and 958 nM with LNCaP.

Consider `COc1cn(C2=CCC3C4CC=C5C[C@@H](NC(=O)c6ccncc6)CC[C@]5(C)C4CC[C@]23C)cn1` (some centres not stated), for which the values for the half-maximal inhibitory concentration (IC50) (in test [1]; in the test with LNCaP) were 4070 nM and 436 nM, respectively.

For `CCc1cn(C2=CCC3C4CC=C5C[C@@H](NC(=O)c6ccncc6)CC[C@]5(C)C4CC[C@]23C)cn1` (some centres not stated), the IC50 in test [1] is 3580 nM; in the test with LNCaP it was 356 nM. In addition, in test [2], the Ratio stood at 2.5. At Androgen receptor, this compound yielded an EC50 of 3210 nM.

Consider `C[C@]12CC[C@H](NC(=O)c3ccnnc3)CC1=CCC1C2CC[C@]2(C)C(n3cnc([N+](=O)[O-])c3)=CCC12` (some centres not stated), for which the half-inhibitory concentration (IC50) in test [1] is above 40000 nM; in the test with LNCaP, 418 nM. Besides, the Ratio in test [2] worked out at 2.5. Moreover, the 50% effective concentration (EC50) on Androgen receptor was 3310 nM.

Turning to `CC(O)c1cn(C2=CCC3C4CC=C5C[C@@H](NC(=O)c6ccnnc6)CC[C@]5(C)C4CC[C@]23C)cn1` (some centres not stated), the IC50 in the test on LNCaP is 1830 nM.

As to `Cc1cn(C2=CCC3C4CC=C5C[C@@H](NC(=O)c6ccc(C#N)cc6)CC[C@]5(C)C4CC[C@]23C)cn1` (some centres not stated), the values for the IC50 (in test [1]; in the test with LNCaP) were above 40000 nM and 643 nM, respectively. Also, the Ratio in test [2] worked out at 2.5. Moreover, the midpoint of the response on Androgen receptor, the EC50, lay at 1560 nM.

In the case of `C[C@]12CC[C@H](NC(=O)c3ccnnc3)CC1=CCC1C2CC[C@]2(C)C(n3cnc(C#N)c3)=CCC12` (some centres not stated), the figures for the IC50 (in test [1]; in the test with LNCaP) were 2870 nM and 471 nM, respectively.

Consider `Cc1cn(C2=CCC3C4CC=C5C[C@@H](NC(=O)c6ccncc6F)CC[C@]5(C)C4CC[C@]23C)cn1` (some centres not stated), for which the IC50 in test [1] was above 40000 nM; with LNCaP, 752 nM. In test [2], the Ratio was 2.5. For the same compound, the EC50 on Androgen receptor was determined as 5720 nM.

Turning to `CCc1cn(C2=CCC3C4CC=C5C[C@@H](NC(=O)c6ccnnc6)CC[C@]5(C)C4CC[C@]23C)cn1` (some centres not stated), the IC50 amounted to 6580 nM in test [1] and 427 nM with LNCaP.
